Data as given in PubChem BioAssay AID1418 (Emory University Molecular Libraries Screening Center, 2008).
Activity calls are given as the source filed them. No rule for the calls is given here.

target: Induced myeloid leukemia cell differentiation protein Mcl-1 (Homo sapiens) (UniProt Q07820); experiment: blockers of Bid binding to Mcl-1 – biochemical, TR-FRET, dose response (AID 1418); conditions: Mcl-1/Bid peptide binding, TR-FRET (europium/Dy647), 2 hr
Sequence (Q07820 whole entry, looked up): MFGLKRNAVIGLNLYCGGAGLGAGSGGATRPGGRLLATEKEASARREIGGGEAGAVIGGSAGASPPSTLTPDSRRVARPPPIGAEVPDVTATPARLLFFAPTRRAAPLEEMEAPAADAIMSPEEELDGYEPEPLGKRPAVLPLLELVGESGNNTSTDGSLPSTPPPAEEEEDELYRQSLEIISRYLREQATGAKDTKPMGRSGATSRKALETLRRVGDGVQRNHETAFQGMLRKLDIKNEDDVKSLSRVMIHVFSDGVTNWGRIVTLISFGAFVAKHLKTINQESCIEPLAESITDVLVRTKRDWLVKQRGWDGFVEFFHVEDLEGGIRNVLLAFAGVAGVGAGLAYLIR

Compound	IC50
O=C(C1=C[C@@H](c2csc3ccccc23)C[C@@H](OCc2ccc(CO)cc2)O1)N1CCN(Cc2ccc3c(c2)OCO3)CC1	> 54 µM (inactive)
C=CCn1c(SCc2ccc([N+](=O)[O-])cc2)nnc1C(C)NC(=O)c1ccccc1 (stereo unspecified)	> 54 µM (inactive)
CC(=O)OCCn1c2nc(=O)[nH]c(=O)c-2nc2cc(C)c(C)cc21	18.8 µM
Cc1cc(C)nc(NCC(O)COc2ccccc2C)n1 (stereo unspecified)	> 54 µM (inactive)
Cc1c(NC(=O)COC(=O)c2cc(-c3ccc(-c4ccccc4)cc3)nc3ccccc23)c(=O)n(-c2ccccc2)n1C	0.58 µM
COc1cc(NC(=O)C2CCN(S(=O)(=O)c3cccc4nonc34)CC2)cc(OC)c1	> 54 µM (inactive)
CCS(=O)(=O)c1ccc(S(=O)(=O)CC)s1	> 54 µM (inactive)
O=C1/C(=C/C=C/c2ccco2)SC(=S)N1NS(=O)(=O)c1ccccc1	2.31 µM
COc1ccc(-c2nnn(CC(=O)N(CCCO)C(C(=O)NC3CCCC3)c3ccncc3)n2)cc1 (stereo unspecified)	> 54 µM (inactive)
O=[N+]([O-])c1cc(Br)c(O)c(/C=N/Nc2nc3ccccc3s2)c1	1.16 µM
O=[N+]([O-])c1ccc(-c2nc3ccc([N+](=O)[O-])cc3[nH]2)cc1	13 µM
COc1ccc(CCNc2nc(-c3cccnc3)cs2)cc1OC	> 54 µM (inactive)
c1ccc2c(c1)ncn2CCCCOc1ccc2c(c1)CCC2	> 54 µM (inactive)
COc1ccc(N/C(=C(/C(Cl)=C(Cl)Cl)[N+](=O)[O-])n2nnc3ccccc32)cc1OC	> 54 µM (inactive)
Brc1cccc(OCCOCCn2ccnc2)c1	> 54 µM (inactive)
CCC1Oc2ccc(C)cc2N(CC(=O)N(Cc2cccnc2)Cc2ccc(C)o2)C1=O (stereo unspecified)	> 54 µM (inactive)
COc1cc(/C=C(/C#N)c2nc3ccccc3c(=O)[nH]2)ccc1O	1.15 µM
COc1ccc(CN2C(=O)c3cccnc3C2O)cc1 (stereo unspecified)	0.71 µM
Cc1nc(NC(=O)c2ccccc2)sc1-c1csc(Nc2ccc(C(=O)O)cc2)n1	9.88 µM
C=C1C(=O)[C@@]23[C@H](O)C[C@@H]4C(C)(C)CC[C@H](O)[C@]4(C)[C@@H]2C[C@H](O)[C@@H]1[C@H]3O	> 54 µM (inactive)
CCOc1cc(C(=S)N2CCOCC2)ccc1O	> 54 µM (inactive)
Cc1sc2ncnc(OCC(=O)Nc3ccc4c(c3)OCCO4)c2c1C	> 54 µM (inactive)
O=C(COC(=O)c1cc[n+]([O-])cc1)Nc1ccccc1Cl	> 54 µM (inactive)
O=C(O)c1cc(N2N=C(C(F)(F)F)/C(=C/C=C/c3ccco3)C2=O)ccc1Cl	1.4 µM

Compound	IC50
Cc1ccc2nc(SC(C)C(=O)NC3CCCc4ccccc43)[nH]c2c1 (stereo unspecified)	> 54 µM (inactive)
CCN1/C(=C\C=C2\C(=O)N(c3ccccc3)C(=S)N2C)Sc2ccccc21	2.97 µM
O=C(Nc1ccccn1)c1ccc([N+](=O)[O-])cc1Cl	> 54 µM (inactive)
NC(=O)c1cnn2c(-c3cccc(C(F)(F)F)c3)ccnc12	> 54 µM (inactive)
O=c1cc(-c2ccc([N+](=O)[O-])cc2)nc2cc(-c3ccc(Cl)cc3)[nH]n12	4.96 µM
O=C(CCS(=O)(=O)c1ccc(Br)s1)NC1CCCCCC1	> 54 µM (inactive)
Cc1ccc(-c2nnc(SCC(=O)N/N=C/c3ccc(C)s3)n2-c2ccc(C)cc2)cc1	> 54 µM (inactive)
Cc1cccc(Cn2c(C)nc3c(N)c(C)c(C)cc32)c1	> 54 µM (inactive)
Cc1nc(SCC(=O)Nc2cc(Cl)ccc2[N+](=O)[O-])nc(C)c1C	> 54 µM (inactive)
Clc1ccccc1-c1nc2ccccc2[nH]1	> 54 µM (inactive)
O=C(CSc1nc(-c2ccccc2)cc(C(F)(F)F)n1)N1CCOCC1	> 54 µM (inactive)
O=C(O)CCCN1C(=O)/C(=C/c2cn(-c3ccccc3)nc2-c2cccs2)SC1=S	6.58 µM
O=C(O)CCN1C(=O)S/C(=C\c2cccnc2)C1=O	> 54 µM (inactive)
CCC(CC)NC(=O)COC(=O)c1cc(Br)ccc1Cl	> 54 µM (inactive)
Nc1c(C(=O)NCCc2ccccc2)c2nc3ccccc3nc2n1CCN1CCOCC1	> 54 µM (inactive)
Cc1cccc(NC(=O)C2CCN(c3nc(C)cc(C)n3)CC2)c1	> 54 µM (inactive)
O=C1C(C=NCc2ccncc2)=C(O)c2ccccc21	> 54 µM (inactive)
CN(CC(=O)Nc1cccc(C#N)c1)Cc1ccc(Cl)cc1	> 54 µM (inactive)
Cc1ccc(OCC(=O)NCc2ccco2)c([N+](=O)[O-])n1	> 54 µM (inactive)
COC(=O)c1ccc(=O)c2nc3/c(=C/O)c(O)cc(=O)c3[nH]c12	3.23 µM
COc1ccccc1C(=O)NC(=S)NNC(=O)c1sc2ccccc2c1Cl	1.7 µM
CCOc1cc(C=C2C(=O)c3ccccc3C2=O)ccc1OCC(=O)Nc1ccc(C)cc1	1.2 µM
Cc1cc(C)c2c(c1)C1C=CCC1C(c1ccc(S(=O)(=O)N3CCOCC3)cc1)N2 (stereo unspecified)	> 54 µM (inactive)
CCN(CCNC(=O)CN1CCN(Cc2ccc(Cl)cc2)C1=O)c1ccccc1	> 54 µM (inactive)

Compound	IC50
O=C(NCc1nnc(SCC(=O)N2CCOCC2)o1)c1c(F)cccc1Cl	> 54 µM (inactive)
CCOc1ccccc1Nc1nc(-c2sc(NC(=O)c3ccc([N+](=O)[O-])cc3)nc2C)cs1	1.37 µM
C#CCOCCOCCOCCNc1nc(N2CCN(C(=O)[C@H](Cc3cc4ccccc4[nH]3)n3cc([C@@H](N)C(C)CC)nn3)CC2)nc(N2CCN(C(=O)[C@H](CCCCN)n3cc([C@@H](N)CC(C)C)nn3)CC2)n1 (stereo partly specified)	16.9 µM
COc1cc2c(cc1OC)CN(CC(=O)Nc1ccc(C#N)cc1)CC2	> 54 µM (inactive)
O=C(CN1C(=O)/C(=C2\SC(=S)N(C3CCS(=O)(=O)C3)C2=O)c2ccccc21)Nc1ccc(F)cc1 (stereo unspecified)	0.72 µM
COc1ccccc1NC(=O)COc1cc(Br)c(CNCCCN2CCOCC2)cc1OC	> 54 µM (inactive)
Cc1n[nH]c(=S)c2nn(-c3ccccc3)c(C)c12	> 54 µM (inactive)
CNC(=O)CN(C1CCCCC1)S(=O)(=O)c1ccc(OC)c(Cl)c1	> 54 µM (inactive)
CC1(c2ccc(Cl)cc2Cl)OCC(Cn2ccnc2)O1 (stereo unspecified)	> 54 µM (inactive)
COc1ccc(Nc2nc(C)c3ccccc3n2)cc1	> 54 µM (inactive)
C/C(C/C(C)=C1/SC(=S)NC1=O)=C1\SC(=S)NC1=O	1.25 µM
O=C(Nc1ccc(CCC(=O)N2CCCC2)cc1)c1ncn[nH]1	> 54 µM (inactive)
CCNc1ccc2c(Cl)cc(=O)oc2c1	> 54 µM (inactive)
O=C(CN1CCN(CCN2C(=O)c3cccc4cccc(c34)C2=O)CC1)c1ccc(F)cc1	> 54 µM (inactive)
O=c1cc(-c2ccccc2Cl)oc2c(NS(=O)(=O)c3cc(Cl)cc(Cl)c3O)ccc(O)c12	7.73 µM
O=C(Cn1[nH]c(=O)c2ccccc2c1=O)OCC(=O)N1CCc2ccccc2C1	> 54 µM (inactive)
Cc1cccc(N2CCN(C(=S)Nc3ccc4nc(N5CCN(C)CC5)cc(C)c4c3)CC2)c1C	2.95 µM
Cc1ccc(S(=O)(=O)N(CC(=O)N/N=C/c2cccc(Cl)c2)c2cccc3cccnc23)cc1	> 54 µM (inactive)
Cc1ccc(NC(=O)C(=O)NCc2ccc(/C=C(/C#N)C(=O)NCc3cccnc3)o2)cc1C	> 54 µM (inactive)
O=C(Cn1c(C(F)(F)F)nc2ccccc21)c1ccc(F)cc1	> 54 µM (inactive)
CNc1nn(-c2cccc(Cl)c2)nc1N	> 54 µM (inactive)
O=[N+]([O-])c1cc(Cl)cc(/C=N/NC(=S)Nc2cc(S(=O)(=O)N3CCOCC3)ccc2Cl)c1O	7.3 µM
C#CCOCCOCCOCCNc1nc(N2CCN(C(=O)[C@H](CCC(=O)O)n3cc(C(N)CC(C)C)nn3)CC2)nc(N2CCN(C(=O)[C@H](CCC(=O)O)n3cc(C(N)[C@H](C)CC)nn3)CC2)n1 (stereo partly specified)	1 µM
O=C(Nc1ccc(S(=O)(=O)Nc2ncccn2)cc1)c1ccc2ncsc2c1	0.86 µM

Compound	IC50
O=C(O)c1ccccc1NS(=O)(=O)c1ccc(NNC(=S)Nc2ccc(OC(F)F)cc2)c([N+](=O)[O-])c1	0.62 µM
COc1cccc(C(=O)Nc2ccc3nc(N4CCN(c5ncccn5)CC4)cc(C)c3c2)c1OC	0.53 µM
CC(NC(=O)Cn1cnc2c1c(=O)n(C)c(=O)n2C)c1ccccc1 (stereo unspecified)	> 54 µM (inactive)
O=C1CN(C(=O)CNCc2ccccc2)c2ccccc2N1	> 54 µM (inactive)
O=C(O)CCCC(=O)Nc1cccc(C(=O)Nc2ccccc2C(=O)O)c1	> 54 µM (inactive)
COc1ccc2nc(C)cc(SCC(=O)Nc3c(C)cccc3C)c2c1	10.5 µM
CC(C)(C)c1cc(-c2csc(Nc3ccccc3)[n+]2Cc2ccc(C(=O)O)cc2)cc(C(C)(C)C)c1O	0.66 µM
O=C(Nc1ccccc1)NC1CCS(=O)(=O)C1 (stereo unspecified)	> 54 µM (inactive)
COc1ccccc1NC(=O)c1sc2ncn(Cc3ccc(C)cc3)c(=O)c2c1C	7.75 µM
Cc1ccc(C(=O)NC(C)c2nc3ccccc3n2CC(=O)Nc2c(C)cc(C)cc2C)cc1 (stereo unspecified)	0.45 µM
COc1ccc2nc(N3C(=O)/C(=C/c4ccc(Cl)cc4)NC3=S)sc2c1	1.75 µM
Cc1cc(-c2ccco2)n2c(nc3ccccc32)c1C#N	> 54 µM (inactive)
CSc1nc(N(C)CCO)c2sc3nc(-c4ccco4)c4c(c3c2n1)CCC4	> 54 µM (inactive)
CN(C)c1ccnc2sc(C(N)=O)c(N)c12	> 54 µM (inactive)
COC(=O)C1=CN(CC2CCCO2)C=C(C(=O)OC)C1c1ccsc1 (stereo unspecified)	> 54 µM (inactive)
O=P(O)(O)C#Cc1ccccc1	> 54 µM (inactive)
CC(C)c1[nH]nc2c1C(c1cccnc1)C(C#N)=C(N)O2 (stereo unspecified)	> 54 µM (inactive)
Fc1cc2nc(-c3ccncc3)[nH]c2cc1F	> 54 µM (inactive)
CCOC(=O)c1c(/N=C/C2C(=O)NC(=S)NC2=O)sc(C)c1C	2.08 µM
COC(=O)/C(=N/Nc1ccccc1)N1CCCc2ccccc21	> 54 µM (inactive)
Cc1ccc(C(=O)OC2=CC(=O)CC(C)(C)C2)cc1	> 54 µM (inactive)
Cc1ccc(NC(=O)CN2CCc3ccccc3C2)cc1F	> 54 µM (inactive)
Cc1cc(=O)[nH]c(SCC(=O)c2ccc3c(c2)NC(=O)CO3)n1	> 54 µM (inactive)
COc1cc(OC)cc(C(=O)N[C@H](C(=O)OCC(=O)NC(=O)c2cccn2C)C(C)C)c1	> 54 µM (inactive)
